Consider three compounds from ChEMBL document CHEMBL3351478 (Eur J Med Chem, 2014).

Data set [1] deals with THP-1. As to the kind of experiment: (§1) Selectivity index, ratio of CC50 for human THP1 cells to IC50 for Leishmania donovani amastigotes infected in human THP1 cells. In kind it is functional.
Data set [2] has as its system THP-1. Description: Induction of nitric oxide production in human THP1 cells infected with Leishmania donovani amastigotes at 32.3 uM incubated for 48 hrs by Griess assay relative to untreated control. In kind it is functional, cell-based.
Data set [3] deals with Leishmania donovani. As to the kind of experiment: Antileishmanial activity against Leishmania donovani AG83 promastigotes assessed as parasite growth inhibition incubated for 92 hrs by MTT assay. In kind it is functional, organism-based. To be noted: AG83, 92 h.
Data set [4] is described as follows: Cytotoxicity against human THP1 cells incubated for 92 hrs by MTT assay. In kind it is cell-based. To be noted: THP-1 cells.
The nature of data set [5]: as §1. In kind it is functional, THP-1.
In data set [6] the test system is THP-1. As to the kind of experiment: Induction of nitric oxide production in human THP1 cells infected with Leishmania donovani amastigotes at 0.93 uM incubated for 48 hrs by Griess assay relative to untreated control. In kind it is functional.
The subject of data set [7] is THP-1. Description: Induction of iNOS2 mRNA expression in human THP1 cells infected with Leishmania donovani amastigotes at 0.93 uM incubated for 5 hrs by RT-PCR method. In kind it is functional, cell-based.
In data set [8] the test system is Leishmania donovani. As to the kind of experiment: Antileishmanial activity against Leishmania donovani amastigotes infected in human THP1 cells assessed as parasite growth inhibition at 100 uM incubated for 48 hrs by Giemsa staining based optical microscopy. To be noted: THP-1, 48 h, read-out: GI. In kind it is functional.
The subject of data set [9] is Leishmania donovani. As to the kind of experiment: microbe, parasite or virus in culture. To be noted: THP-1, 48 h.
Description: Antileishmanial activity against Leishmania donovani amastigotes infected in human THP1 cells at 10 to 210 uM incubated for 48 hrs by Giemsa staining based optical microscopy
For data set [10], the system named is Leishmania donovani. Description: Antileishmanial activity against Leishmania donovani. In kind it is functional, organism-based.

Calls of active or inactive are those of the source. No cut-off for these calls is given here.

For sodium antimonygluconate, in data set [1], the Ratio CC50/IC50 was 10.1. Further, in data set [2], the result was inactive.
For the compound `COc1cc(O)c2c(=O)c(OC)c(-c3cc(O)c(O)c(OC)c3)oc2c1`, in data set [3], the IC50 was 2.4 µM and the IC90 is 28.1 µM. This compound registered a CC50 at 92 h in data set [4] of 124 µM. The “Ratio CC50/IC50” value in data set [5] was 133.01. For the same compound, the “fold change (FC)” value in data set [6] is 8.4. Also, the outcome in data set [7] was Active. Besides, the inhibition of growth at 100 µM in data set [8] is 100%. In [9], this compound came in with an IC50 of 0.93 µM.
In turn, `COc1cc(-c2oc3cc(O)cc(O)c3c(=O)c2O)cc(OC)c1OC` came in with an IC50 in data set [10] above 30 µg/mL.
